Laboratory results as given in ChEMBL document CHEMBL5226348, “Recent Progress of Small Molecule Menin-MLL Interaction Inhibitors as Therapeutic Agents for Acute Leukemia” (J Med Chem, 2021).

What was measured:
MV4-11 = assay: Antiproliferative activity against human MV4-11 cells; assay type: functional
[1] = Oral bioavailability in mouse; assay type: ADME, organism-based; conditions: in vivo
[2] = target: T1, Menin/Histone-lysine N-methyltransferase MLL (Homo sapiens, UniProt O00255); assay: Inhibition of human Menin to MLL protein-protein interaction; assay type: protein assay
MOLM-13 = assay: Antiproliferative activity against human MOLM-13 cells; assay type: functional
[3] = target: T1, Menin/Histone-lysine N-methyltransferase MLL; assay: Inhibition of Menin to MLL (unknown origin) protein-protein interaction; assay type: protein assay

T1 sequence (O00255 whole entry): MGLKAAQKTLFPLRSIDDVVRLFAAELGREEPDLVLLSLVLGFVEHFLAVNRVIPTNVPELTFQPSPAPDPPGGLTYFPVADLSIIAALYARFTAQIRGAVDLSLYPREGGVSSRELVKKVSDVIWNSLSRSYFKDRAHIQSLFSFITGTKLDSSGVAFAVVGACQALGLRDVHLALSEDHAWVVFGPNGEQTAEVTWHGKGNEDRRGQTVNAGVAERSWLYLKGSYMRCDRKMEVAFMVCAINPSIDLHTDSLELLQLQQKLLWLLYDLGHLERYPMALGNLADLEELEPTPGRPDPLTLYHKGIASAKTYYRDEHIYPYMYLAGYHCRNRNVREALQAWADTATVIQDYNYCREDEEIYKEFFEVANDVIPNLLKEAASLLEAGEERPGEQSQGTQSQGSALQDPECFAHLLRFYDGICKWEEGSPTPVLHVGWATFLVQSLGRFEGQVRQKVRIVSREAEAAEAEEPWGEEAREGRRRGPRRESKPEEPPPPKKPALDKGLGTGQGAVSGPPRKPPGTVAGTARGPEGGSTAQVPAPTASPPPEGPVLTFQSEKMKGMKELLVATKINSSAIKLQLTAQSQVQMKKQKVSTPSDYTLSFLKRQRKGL
T1 sequence (Q03164 1-2718 partner limits assumed): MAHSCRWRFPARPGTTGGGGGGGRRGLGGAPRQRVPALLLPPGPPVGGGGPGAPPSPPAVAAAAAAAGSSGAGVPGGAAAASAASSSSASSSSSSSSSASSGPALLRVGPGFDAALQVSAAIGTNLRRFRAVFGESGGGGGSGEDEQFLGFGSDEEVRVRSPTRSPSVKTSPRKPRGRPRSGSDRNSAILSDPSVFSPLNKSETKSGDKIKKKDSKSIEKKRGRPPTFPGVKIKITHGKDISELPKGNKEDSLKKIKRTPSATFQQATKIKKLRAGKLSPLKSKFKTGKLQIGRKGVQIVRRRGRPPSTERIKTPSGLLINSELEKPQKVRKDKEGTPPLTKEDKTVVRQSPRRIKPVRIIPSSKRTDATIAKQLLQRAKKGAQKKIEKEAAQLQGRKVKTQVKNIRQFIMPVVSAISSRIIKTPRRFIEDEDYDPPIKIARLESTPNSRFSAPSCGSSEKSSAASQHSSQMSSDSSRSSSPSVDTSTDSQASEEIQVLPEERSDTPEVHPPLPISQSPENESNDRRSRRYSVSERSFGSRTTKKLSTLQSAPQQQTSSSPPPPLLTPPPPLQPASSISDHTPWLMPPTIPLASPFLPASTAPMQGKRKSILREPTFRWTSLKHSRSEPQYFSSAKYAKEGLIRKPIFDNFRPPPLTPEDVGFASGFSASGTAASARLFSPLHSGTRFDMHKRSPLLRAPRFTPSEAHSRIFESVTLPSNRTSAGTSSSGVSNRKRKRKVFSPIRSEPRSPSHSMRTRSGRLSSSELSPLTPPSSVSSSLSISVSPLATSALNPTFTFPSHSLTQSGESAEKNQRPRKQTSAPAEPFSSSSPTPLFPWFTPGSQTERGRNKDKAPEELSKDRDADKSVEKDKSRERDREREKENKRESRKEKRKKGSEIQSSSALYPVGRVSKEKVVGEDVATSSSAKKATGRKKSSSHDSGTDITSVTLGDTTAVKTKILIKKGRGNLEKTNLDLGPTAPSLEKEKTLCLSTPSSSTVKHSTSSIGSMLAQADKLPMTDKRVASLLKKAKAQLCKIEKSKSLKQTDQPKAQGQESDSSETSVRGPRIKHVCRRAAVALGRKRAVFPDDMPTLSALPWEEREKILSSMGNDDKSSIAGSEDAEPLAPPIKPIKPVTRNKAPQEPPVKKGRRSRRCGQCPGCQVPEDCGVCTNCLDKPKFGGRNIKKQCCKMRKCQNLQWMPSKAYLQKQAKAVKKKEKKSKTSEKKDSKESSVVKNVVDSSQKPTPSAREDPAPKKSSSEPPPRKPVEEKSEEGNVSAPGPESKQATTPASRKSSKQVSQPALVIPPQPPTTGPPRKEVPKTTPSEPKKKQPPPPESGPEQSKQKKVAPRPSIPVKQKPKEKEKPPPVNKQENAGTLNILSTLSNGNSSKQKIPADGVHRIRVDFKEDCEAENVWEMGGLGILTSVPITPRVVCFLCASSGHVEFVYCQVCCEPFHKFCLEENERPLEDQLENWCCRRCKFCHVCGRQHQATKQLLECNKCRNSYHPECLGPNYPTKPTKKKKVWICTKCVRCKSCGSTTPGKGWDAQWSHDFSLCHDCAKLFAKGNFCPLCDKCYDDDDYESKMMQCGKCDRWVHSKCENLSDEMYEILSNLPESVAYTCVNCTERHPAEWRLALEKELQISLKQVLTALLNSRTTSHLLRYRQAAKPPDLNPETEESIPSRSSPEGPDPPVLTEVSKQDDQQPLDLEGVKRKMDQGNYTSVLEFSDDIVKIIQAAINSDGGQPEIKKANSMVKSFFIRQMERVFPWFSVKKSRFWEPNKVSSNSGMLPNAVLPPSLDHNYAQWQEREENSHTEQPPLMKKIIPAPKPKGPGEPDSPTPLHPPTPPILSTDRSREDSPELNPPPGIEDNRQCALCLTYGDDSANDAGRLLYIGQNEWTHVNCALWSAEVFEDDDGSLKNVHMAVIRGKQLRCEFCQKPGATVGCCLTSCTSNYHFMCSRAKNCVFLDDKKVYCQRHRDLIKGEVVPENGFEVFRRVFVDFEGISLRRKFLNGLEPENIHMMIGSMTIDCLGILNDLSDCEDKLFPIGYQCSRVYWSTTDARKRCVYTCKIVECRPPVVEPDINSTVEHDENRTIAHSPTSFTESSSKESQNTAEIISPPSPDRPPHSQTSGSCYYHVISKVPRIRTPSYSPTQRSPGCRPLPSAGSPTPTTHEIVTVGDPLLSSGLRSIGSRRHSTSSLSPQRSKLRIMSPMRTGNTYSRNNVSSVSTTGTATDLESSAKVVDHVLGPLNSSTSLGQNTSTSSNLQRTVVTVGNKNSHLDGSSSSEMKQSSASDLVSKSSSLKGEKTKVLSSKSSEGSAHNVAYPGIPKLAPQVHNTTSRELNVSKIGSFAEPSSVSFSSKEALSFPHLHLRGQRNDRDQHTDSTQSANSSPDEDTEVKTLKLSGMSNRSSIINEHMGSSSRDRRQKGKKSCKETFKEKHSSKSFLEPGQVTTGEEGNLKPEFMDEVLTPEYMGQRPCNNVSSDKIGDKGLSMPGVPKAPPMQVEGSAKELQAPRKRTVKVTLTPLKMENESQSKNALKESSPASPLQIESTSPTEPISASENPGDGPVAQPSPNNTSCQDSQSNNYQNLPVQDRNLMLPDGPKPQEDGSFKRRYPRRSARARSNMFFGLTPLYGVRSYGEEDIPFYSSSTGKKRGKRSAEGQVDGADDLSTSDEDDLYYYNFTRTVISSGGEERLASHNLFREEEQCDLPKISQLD
T1 sequence (Q03164 2719-3969 partner limits assumed): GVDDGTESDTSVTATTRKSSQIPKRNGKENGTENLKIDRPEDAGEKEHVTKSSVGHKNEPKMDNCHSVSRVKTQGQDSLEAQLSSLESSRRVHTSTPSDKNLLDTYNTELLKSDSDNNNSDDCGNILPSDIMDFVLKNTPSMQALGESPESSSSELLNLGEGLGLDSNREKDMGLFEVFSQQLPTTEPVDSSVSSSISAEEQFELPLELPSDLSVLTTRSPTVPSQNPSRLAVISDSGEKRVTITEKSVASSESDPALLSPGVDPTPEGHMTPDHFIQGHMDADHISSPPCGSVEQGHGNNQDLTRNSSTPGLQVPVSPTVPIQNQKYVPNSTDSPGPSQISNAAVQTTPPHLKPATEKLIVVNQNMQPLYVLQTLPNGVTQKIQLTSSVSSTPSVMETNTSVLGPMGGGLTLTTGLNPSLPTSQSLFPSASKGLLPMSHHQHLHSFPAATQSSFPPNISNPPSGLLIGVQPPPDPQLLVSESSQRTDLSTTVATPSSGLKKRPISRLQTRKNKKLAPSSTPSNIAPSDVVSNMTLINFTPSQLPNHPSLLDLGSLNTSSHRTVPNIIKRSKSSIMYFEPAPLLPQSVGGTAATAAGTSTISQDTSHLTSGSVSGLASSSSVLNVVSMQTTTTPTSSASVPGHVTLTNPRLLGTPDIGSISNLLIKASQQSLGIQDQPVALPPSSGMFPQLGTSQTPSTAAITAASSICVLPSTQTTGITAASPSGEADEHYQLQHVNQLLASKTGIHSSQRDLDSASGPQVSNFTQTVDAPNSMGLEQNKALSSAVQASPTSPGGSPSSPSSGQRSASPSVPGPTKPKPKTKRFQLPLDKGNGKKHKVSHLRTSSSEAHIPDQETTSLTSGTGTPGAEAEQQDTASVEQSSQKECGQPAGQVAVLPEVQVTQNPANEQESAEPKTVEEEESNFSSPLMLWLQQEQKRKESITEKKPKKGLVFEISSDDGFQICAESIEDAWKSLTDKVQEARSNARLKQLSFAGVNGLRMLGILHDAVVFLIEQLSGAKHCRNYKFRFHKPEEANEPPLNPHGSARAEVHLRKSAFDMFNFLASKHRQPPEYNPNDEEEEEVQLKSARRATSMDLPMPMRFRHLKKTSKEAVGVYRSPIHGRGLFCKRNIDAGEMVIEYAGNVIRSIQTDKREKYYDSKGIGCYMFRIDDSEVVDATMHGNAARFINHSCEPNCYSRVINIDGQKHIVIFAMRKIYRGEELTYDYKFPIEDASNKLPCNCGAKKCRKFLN

SMILES | GI50 (MV4-11) | IC50 [2] | GI50 (MOLM-13) | IC50 [3] | other results
CCCc1cc2c(N3CCN(C4=NCC(C)(C)S4)CC3)ncnc2s1 | 9500 nM |  |  |  | 
Cc1c(CN2CCC(Nc3ncnc4sc(CC(F)(F)F)cc34)CC2)ccc2c1cc(C#N)n2Cc1cn[nH]c1 |  |  |  |  | bioavailability [1]: 73%
Cc1c(CN2CCC(Nc3ncnc4sc(CC(F)(F)F)cc34)CC2)ccc2[nH]c(C#N)cc12 |  |  |  |  | bioavailability [1]: 44%
NCC(CCN1CC=C(c2ccc(Cl)cc2)CC1)(c1ccccc1)C1CCCC1 (stereo not given) |  | 0.83 nM |  |  | 
COC(=O)N[C@H]1CCC[C@@H]1[C@](C#N)(c1cccc(F)c1)C1CCN(CC2CN(c3ccc(S(=O)(=O)C4CN(C(=O)/C=C/CN(C)C)C4)cc3)C2)CC1 | 2.7 nM |  | 15.4 nM |  | 
CC(C)N(C(=O)c1cc(F)ccc1Oc1cncnc1N1CC2(CCN(C[C@H]3CC[C@H](NS(C)(=O)=O)CC3)CC2)C1)C(C)C | 17 nM |  | 13 nM | 40000 nM | 
CNc1nc(NC2CCN(Cc3ccc4c(cc(C#N)n4CC45CC(NC=O)(C4)C5)c3C)CC2)c2cc(CC(F)(F)F)sc2n1 | 7.6 nM | 0.5 nM | 12.5 nM |  | 
O=c1cccc2n1C[C@@H]1C[C@H]2CN(CC(O)CSCc2ccccc2)C1 (stereo not given in full) |  |  |  | 40 nM | 
Clc1ccc2c(NCCN3CCN(CCCCCCCN4CCN(CCNc5ccnc6cc(Cl)ccc56)CC4)CC3)ccnc2c1 |  | 4.7 nM |  |  | 
C[C@@]12CN(CC(O)CCCc3ccccc3)C[C@@](C)(C1)c1cccc(=O)n1C2 (stereo not given in full) |  |  |  | 1 nM | 
